The target of one experiment is T1, PPARγ (Homo sapiens, UniProt P37231).
T1 construct: expressed in transfected cells
T1 sequence (P37231 1-505): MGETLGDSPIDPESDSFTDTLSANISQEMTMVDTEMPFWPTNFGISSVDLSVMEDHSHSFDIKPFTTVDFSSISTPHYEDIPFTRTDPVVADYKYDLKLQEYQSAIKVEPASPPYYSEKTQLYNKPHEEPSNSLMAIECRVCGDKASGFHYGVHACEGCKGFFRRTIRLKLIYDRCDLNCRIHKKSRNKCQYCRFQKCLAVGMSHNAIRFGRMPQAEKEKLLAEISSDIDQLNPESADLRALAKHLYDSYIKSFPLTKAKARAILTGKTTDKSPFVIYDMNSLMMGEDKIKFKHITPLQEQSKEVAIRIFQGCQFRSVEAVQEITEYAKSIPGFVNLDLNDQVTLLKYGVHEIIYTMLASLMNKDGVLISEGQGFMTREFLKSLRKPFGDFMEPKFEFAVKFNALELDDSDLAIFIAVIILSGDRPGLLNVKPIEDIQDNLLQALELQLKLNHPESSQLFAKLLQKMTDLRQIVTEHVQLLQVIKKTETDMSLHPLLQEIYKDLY
T1 sequence (P19793 1-462 partner): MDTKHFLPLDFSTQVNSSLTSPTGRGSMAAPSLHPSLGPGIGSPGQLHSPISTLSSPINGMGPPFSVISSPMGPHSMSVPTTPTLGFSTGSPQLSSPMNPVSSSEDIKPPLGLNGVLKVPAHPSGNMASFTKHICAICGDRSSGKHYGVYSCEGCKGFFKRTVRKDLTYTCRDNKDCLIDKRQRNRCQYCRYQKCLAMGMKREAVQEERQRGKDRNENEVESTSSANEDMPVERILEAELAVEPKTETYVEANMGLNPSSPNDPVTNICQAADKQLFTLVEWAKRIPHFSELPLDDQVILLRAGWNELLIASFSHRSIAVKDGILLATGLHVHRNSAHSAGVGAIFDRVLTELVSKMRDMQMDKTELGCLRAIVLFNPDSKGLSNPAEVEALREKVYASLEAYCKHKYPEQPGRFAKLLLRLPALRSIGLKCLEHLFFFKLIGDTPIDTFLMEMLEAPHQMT
The experiment in a line: Transcriptional transactivation assay (luciferase reporter gene 3xPPRE TK luc). It is filed as cell-based. The settings on record: any concentration tested. As for the experimental part: In vitro vascular studies were carried out in rat isolated aortae by wire myography. PPARγ activation was investigated using reporter gene assays, a PPARγ competition-binding assay and an adipogenesis assay.
On the technique in general: Reporter assays use an easily measured gene product as a stand-in for the process of interest.

Another experiment deals with C57B1/6 ob/ob mouse. In words: Plasma triglycerides. It counts as in vivo. The settings on record: ob/ob mice; CBD given on its own (3.0 mg/kg). How it is done: The following are a battery of tests used to elicit the effects of drugs on diseases including type I or II diabetes, obesity, dyslipidaemia, related metabolic disorders and cardiovascular disease. • a) Body weight: Bodyweights of all mice were measured twice weekly during the study. • b) Food intake: Food intake was measured by weight difference taking account of food wastage in the bottom of the cage. • c) Measurement of water consumption: Water intake was calculated daily for each animal, during the treatment period, by weight difference of the water bottle. • d) Oral Glucose Tolerance Test (OGTT): Glucose was dissolved in water (3 g/10 ml) and given to the mice orally at a rate of 3 g/kg. […] Samples were then analysed automatically using a SpectraMax-250 and SoftMax Pro software. • f) Plasma preparation: Blood was collected for the measurement of i) plasma insulin, ii) cholesterol, iii) free fatty acids or iv) triglyceride concentration. • i. Plasma insulin analysis: Plasma insulin was measured using 5 μl of plasma, compared with a mouse insulin standard using a 96-well micro-assay plate • ii. […] The samples were mixed and incubated for 5 minutes before reading at dual wavelengths of 500 and 660 nm. • iii. Plasma free fatty acids: 5 μl samples of plasma were measured into a 96-well assay plate, to which was added 0.2 ml of reagents NEFA C • iv. […]

As for `CCCc1cc(O)c2c(c1)OC(C)(C)[C@@H]1CCC(C)=C[C@@H]21` [THCV, tetrahydrocannabivarin], the PPARγ transcriptional activity entry on PPARγ was “no effect”. Regarding `C=C(C)[C@@H]1CCC(C)=C[C@H]1c1c(O)cc(CCCCC)cc1O` [CBD, cannabidiol], the Plasma triglycerides entry in the experiment with C57B1/6 ob/ob mouse is listed as “no effect on plasma triglycerides”.

The values are drawn from patent US20130245110A1, “USE FOR CANNABINOIDS” (priority 2008, published 2013).
